Laboratory results taken from patent US11369565B2, “Amino-pyrimidine skeletal muscle modulators” (Cytokinetics, Inc., priority 2010, dated 2022).

Tested on: rabbit skeletal myofibrils (approximately 90% fast fibers)
Test: Activation of fast skeletal myofibrils (PUMA coupled-enzyme ATPase assay at pCa25)
Assay type: biochemical
Settings: concentration at which the compound increased the enzymatic activity by 40%; calcium at pCa25; PM12 buffer pH 6.8
How it was run: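 Detergent-washed rabbit psoas myofibrils tested at calcium giving 25% of maximal rate (pCa25). ATPase activity tracked by pyruvate kinase/lactate dehydrogenase coupling, NADH oxidation read as absorbance at 340 nm, in PM12 buffer (12 mM Pipes, 2 mM MgCl2, 1 mM DTT, pH 6.8).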

Row | Molecule | Mean AC1.4
1 | O=C(NC1CC(O)C1)c1cccc(-c2cnc(NC[C@]3(c4ncccc4F)C[C@H](F)C3)nc2)c1 (stereo partly drawn) [{3-[2-(([3-fluoro-1-(3-fluoro(2-pyridyl))cyclobutyl]methyl}amino)pyrimidin-5-yl]phenyl}-N-(3-hydroxycyclobutyl)carboxamide] | B (B=1-10 uM)
2 | CNC(=O)c1cccc(-c2cnc(NC[C@]3(c4ncccc4F)C[C@H](F)C3)nc2)c1O [{3-[2-({[3-fluoro-1-(3-fluoro(2-pyridyl))cyclobutyl]methyl}amino)pyrimidin-5-yl]-2-hydroxyphenyl}-N-methylcarboxamide] | B (B=1-10 uM)
3 | CNC(=O)c1ccc(O)c(-c2cnc(NC[C@]3(c4ncccc4F)C[C@H](F)C3)nc2)c1 [{3-[2-({[3-fluoro-1-(3-fluoro(2-pyridyl))cyclobutyl]methyl}amino)pyrimidin-5-yl]-4-hydroxyphenyl}-N-methylcarboxamide] | A (A=<1 uM)
4 | CN1CC(NC(=O)c2cccc(-c3cnc(NC[C@]4(c5ncccc5F)C[C@H](F)C4)nc3)c2)C1 [{3-[2-({[3-fluoro-1-(3-fluoro(2-pyridyl))cyclobutyl]methyl}amino)pyrimidin-5-yl]phenyl}-N-(1-methylazetidin-3-yl)carboxamide] | A (A=<1 uM)
5 | CS(=O)(=O)NC(=O)c1cccc(-c2cnc(NCC3(c4ncccc4F)CC(F)C3)nc2)c1 (stereo not drawn) [{3-[2-({[3-fluoro-1-(3-fluoro(2-pyridyl))cyclobutyl]methyl}amino)pyrimidin-5-yl]phenyl}-N-(methylsulfonyl)carboxamide] | A (A=<1 uM)
6 | CS(=O)(=O)N1CC(NC(=O)c2cccc(-c3cnc(NC[C@]4(c5ncccc5F)C[C@H](F)C4)nc3)c2)C1 [{3-[2-({[3-fluoro-1-(3-fluoro(2-pyridyl))cyclobutyl]methyl}amino)pyrimidin-5-yl]phenyl}-N-[1-(methylsulfonyl)azetidin-3-yl]carboxamide] | B (B=1-10 uM)
7 | CNC(=O)c1cccc(-c2cnc(NC[C@]3(c4ncccc4F)C[C@H](F)C3)nc2)c1 [{3-[2-({[3-fluoro-1-(3-fluoro(2-pyridyl))cyclobutyl]methyl}amino)pyrimidin-5-yl]phenyl}-N-methylcarboxamide] | B (B=1-10 uM)
8 | CNC(=O)c1cccc(-c2cnc(NCC3(c4ncccc4F)CCC3)nc2)c1 [{3-[2-({[(3-fluoro(2-pyridyl))cyclobutyl]methyl)amino)pyrimidin-5-yl]phenyl}-N-methylcarboxamide] | B (B=1-10 uM)
9 | CNC(=O)c1ccc(O)c(-c2cnc(NCC3(c4ncccc4F)CCC3)nc2)c1 [{3-[2-({[(3-fluoro(2-pyridyl))cyclobutyl]methyl}amino)pyrimidin-5-yl]-4-hydroxyphenyl}-N-methylcarboxamide] | B (B=1-10 uM)
10 | O=C(NC1CC(O)C1)c1ccc(F)c(-c2cnc(NC[C@]3(c4ncccc4F)C[C@H](F)C3)nc2)c1 (stereo partly drawn) [{4-fluoro-3-[2-({[3-fiuoro-1-(3-fluoro(2-pyridyl))cyclobutyl]methyl}amino)pyrimidin-5-yl]phenyl}-N-(3-hydroxycyclobutyl)carboxamide] | A (A=<1 uM)
11 | CS(=O)(=O)N1CC(NC(=O)c2ccc(F)c(-c3cnc(NC[C@]4(c5ncccc5F)C[C@H](F)C4)nc3)c2)C1 [{4-fluoro-3-[2-({[3-fluoro-1-(3-fluoro(2-pyridyl))cyclobutyl)]methyl}amino)pyridin-5-yl]phenyl}-N-[1-(methylsulfonyl)azetidin-3-yl]carboxamide] | 6 µM
12 | CN1CC(NC(=O)c2ccc(F)c(-c3cnc(NC[C@]4(c5ncccc5F)C[C@H](F)C4)nc3)c2)C1 [{4-fluoro-3-[2-({[3-fluoro-1-(3-fluoro(2-pyridyl))cyclobutyl]methyl}amino)pyrimidin-5-yl]phenyl}-N-(1-methylazetidin-3-yl)carboxamide] | B (B=1-10 uM)
13 | CNC(=O)c1ccc(F)c(-c2cnc(NC[C@]3(c4ncccc4F)C[C@H](F)C3)nc2)c1 [{4-fluoro-3-[2-({[3-fluoro-1-(3-fluoro(2-pyridyl))cyclobutyl]methyl}amino)pyrimidin-5-yl]phenyl}-N-methylcarboxamide] | A (A=<1 uM)
14 | CNC(=O)c1ccc(F)c(-c2cnc(NCC3(c4ncccc4F)CCC3)nc2)c1 [{4-fluoro-3-[2-({[(3-fluoro(2-pyridyl))cyclobutyl]methyl}amino)pyrimidin-5-yl]phenyl}-N-methylcarboxamide] | B (B=1-10 uM)
15 | CC(C)(Nc1ncc(-c2nc(CN)cs2)cn1)c1ncccc1F [{5-[4-(aminomethyl)(1,3-thiazol-2-yl)]pyrimidin-2-yl}[1-(3-fluoro(2-pyridyl))-isopropyl]amine] | D (D=>20 uM)
16 | CC(C)(Nc1ncc(-c2ncc(CN)s2)cn1)c1ncccc1Cl [{5-[5-(aminomethyl)(1,3-thiazol-2-yl)]pyrimidin-2-yl}[1-(3-chloro(2-pyridyl))-isopropyl]amine] | D (D=>20 uM)
17 | CC(C)(Nc1ncc(-c2ncc(CN)s2)cn1)c1ncccc1F [{5-[5-(aminomethyl)(1,3-thiazol-2-yl)]pyrimidin-2-yl}[1-(3-fluoro(2-pyridyl))-isopropyl]amine] | D (D=>20 uM)
18 | NCc1cnc(-c2cnc(NCC3(c4ncccc4Cl)CCC3)nc2)s1 [{5-[5-(aminomethyl)(1,3-thiazol-2-yl)]pyrimidin-2-yl}{[3-chloro(2-pyridyl))cyclobutyl]methyl)amine] | B (B=1-10 uM)

Row | Molecule | Mean AC1.4
19 | NCc1cnc(-c2cnc(NCC3(c4ncccc4F)CCC3)nc2)s1 [{5-[5-(aminomethyl)(1,3-thiazol-2-yl)]pyrimidin-2-yl}{[(3-fluoro(2-pyridyl))cyclobutyl]methyl}amine] | C (C=10-20 uM)
20 | O=C(Nc1cnc(NCC2(c3ncccc3F)CCC2)nc1)Nc1nccs1 [{[2-({[(3-fluoro(2-pyridyl))cyclobutyl]methyl}amino)pyrimidin-5-yl]amino}-N-(1,3-thiazol-2-yl)carboxamide] | B (B=1-10 uM)
21 | COc1nc(NC[C@]2(c3ncccc3F)C[C@@H](F)C2)ncc1-c1ccccc1 [{[3-fluoro-1-(3-fluoro(2-pyridyl))cyclobutyl]methyl)(4-methoxy-5-phenylpyrimidin-2-yl)amine] | B (B=1-10 uM)
22 | COc1ncc(-c2cnc(NC[C@]3(c4ncccc4F)C[C@H](F)C3)nc2)cn1 [{[3-fluoro-1-(3-fluoro(2-pyridyl))cyclobutyl]methyl} [5-(2-methoxypyrimidin-5-yl)pyrimidin-2-yl]amine] | D (D=>20 uM)
23 | COc1ccc(-c2cnc(NC[C@]3(c4ncccc4F)C[C@H](F)C3)nc2)cn1 [{[3-fluoro-1-(3-fluoro(2-pyridyl))cyclobutyl]methyl} [5-(6-methoxy(3-pyridyl))pyrimidin-2-yl]amine] | D (D=>20 uM)
24 | COc1nc(NC[C@]2(c3ncccc3F)C[C@H](F)C2)ncc1-c1ccccc1 [{[3-fluoro-1-(3-fluoro(2-pyridyl))cyclobutyl]methyl}(4-methoxy-5-phenylpyrimidin-2-yl)amine] | B (B=1-10 uM)
25 | COc1nc(N(C)C[C@]2(c3ncccc3F)C[C@H](F)C2)ncc1-c1ccccc1 [{[3-fluoro-1-(3-fluoro(2-pyridyl))cyclobutyl]methyl}(4-methoxy-5-phenylpyrimidin-2-yl)methylamine] | D (D=>20 uM)
26 | COc1ccnc(NC[C@]2(c3ncccc3F)C[C@H](F)C2)n1 [{[3-fluoro-1-(3-fluoro(2-pyridyl))cyclobutyl]methyl}(4-methoxypyrimidin-2-yl)amine] | D (D=>20 uM)
27 | CNc1nc(NC[C@]2(c3ncccc3F)C[C@H](F)C2)ncc1-c1ccccc1 [{[3-fluoro-1-(3-fluoro(2-pyridyl))cyclobutyl]methyl}[4-(methylamino)-5-phenylpyrimidin-2-yl]amine] | D (D=>20 uM)
28 | Fc1ccccc1-c1cnc(NC[C@]2(c3ncccc3F)C[C@H](F)C2)nc1 [{[3-fluoro-1-(3-fluoro(2-pyridyl))cyclobutyl]methyl}[5-(2-fluorophenyl)pyrimidin-2-yl]amine] | A (A=<1 uM)
29 | COc1ccc(C)nc1-c1cnc(NC[C@]2(c3ncccc3F)C[C@H](F)C2)nc1 [{[3-fluoro-1-(3-fluoro(2-pyridyl))cyclobutyl]methyl}[5-(3-methoxy-6-methyl(2-pyridyl))pyrimidin-2-yl]amine] | C (C=10-20 uM)
30 | COc1ccc(-c2cnc(NC[C@]3(c4ncccc4F)C[C@H](F)C3)nc2)nn1 [{[3-fluoro-1-(3-fluoro(2-pyridyl))cyclobutyl]methyl}[5-(6-methoxypyridazin-3-yl)]pyrimidin-2-yl]amine] | D (D=>20 uM)
31 | Fc1cccnc1[C@]1(CNc2ncccn2)C[C@@H](F)C1 [{[3-fluoro-1-(3-fluoro(2-pyridyl))cyclobutyl]methyl}pyrimidin-2-ylamine] | D (D=>20 uM)
32 | Clc1cccnc1C1(CNc2ncccn2)CCC1 [{[(3-chloro(2-pyridyl))cyclobutyl]methyl}pyrimidin-2-ylamine] | D (D=>20 uM)
33 | Fc1cccnc1C1(CNc2ncc(-c3ncc[nH]3)cn2)CCC1 [{[(3-fluoro(2-pyridyl))cyclobutyl]methyl}(5-imidazol-2-ylpyrimidin-2-yl)amine] | C (C=10-20 uM)
34 | N-(2-aminoethyl)[2-({[(3-fluoro(2- pyridyl))cyclobutyl]methyl}amino) pyrimidin-5-yl]carboxamide | D (D=>20 uM)
35 | [5-(2-{[1-(3-chloro(2-pyridyl))- isopropyl}amino}pyrimidin-5-yl)(1H- indazol-3-yl)]methylsulfonyl)amine | A (A=<1 uM)
36 | ethyl 1-[(2-{[2-(4-fluorophenyl)-2- methylpropyl]amino}pyrimidin-5- yl)carbonylamino] cyclopropanecarboxylate | D (D=>20 uM)
